Experimental findings from PubChem BioAssay AID270 (DTP/NCI, 2004) are described below.

The test relates to BDF1 mice, s.c. Lewis lung carcinoma, T/C %. The test can be described thus: NCI In Vivo Anticancer Drug Screen. Data for tumor model Lewis Lung Carcinoma (subcutaneous) in B6D2F1 (BDF1) mice. The method, boiled down:
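Transplanted tumors grown in mice; compound vs vehicle dosing; endpoint survival or tumor size; ratio T/C.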

Where [1] appears, read: endpoint: mean tumor weight, dose: 100.0 mg/kg/injection, schedule: Q01DX011 (ip), vehicle: carboxymethylcellulose (CMC), higher = larger tumour.
Where [2] appears, read: endpoint: median survival time, dose: 5.0 mg/kg/injection, schedule: Q01DX009 (ip), vehicle: saline, higher = longer survival.
Where [3] appears, read: endpoint: median survival time, dose: 10.0 mg/kg/injection, schedule: Q01DX009 (ip), vehicle: saline, higher = longer survival.

Where “and” joins values, the source holds several entries; their conditions need not be identical. Equal values may be shown once. Results filed as inconclusive are left out.

With `OC(C1CO1)C(O)C1CO1` (stereo not given), the T/C is 73 % of control (endpoint: mean tumor weight (est.), dose: 1.0 mg/kg/injection, schedule: Q01DX009 (ip), vehicle: saline, higher = larger tumour); 65 % of control (endpoint: mean tumor weight (est.), dose: 1.0 mg/kg/injection, schedule: Q04DX003 (ip), vehicle: saline, higher = larger tumour); 46 % of control (endpoint: mean tumor weight (est.), dose: 2.0 mg/kg/injection, schedule: Q01DX009 (ip), vehicle: saline, higher = larger tumour); 45 % of control (endpoint: mean tumor weight (est.), dose: 2.0 mg/kg/injection, schedule: Q04DX003 (ip), vehicle: saline, higher = larger tumour); 63 % of control (endpoint: mean tumor weight (est.), dose: 4.0 mg/kg/injection, schedule: Q04DX003 (ip), vehicle: saline, higher = larger tumour); 95 % of control (endpoint: median survival time, dose: 1.0 mg/kg/injection, schedule: Q01DX009 (ip), vehicle: saline, higher = longer survival). Moreover, the T/C by setting is: (endpoint: median survival time, dose: 1.0 mg/kg/injection, schedule: Q04DX003 (ip), vehicle: saline, higher = longer survival) 104 % of control; (endpoint: median survival time, dose: 2.0 mg/kg/injection, schedule: Q01DX009 (ip), vehicle: saline, higher = longer survival) 117 % of control; (endpoint: median survival time, dose: 2.0 mg/kg/injection, schedule: Q04DX003 (ip), vehicle: saline, higher = longer survival) 104 % of control; (endpoint: median survival time, dose: 4.0 mg/kg/injection, schedule: Q04DX003 (ip), vehicle: saline, higher = longer survival) 123 % of control.

In the case of `Cc1ccccc1Cc1ccccc1`, the T/C is, setting by setting: (endpoint: mean tumor weight, dose: 78.0 mg/kg/injection, schedule: Q01DX011 (ip), vehicle: saline, higher = larger tumour) 121 % of control; (endpoint: mean tumor weight, dose: 117.0 mg/kg/injection, schedule: Q01DX011 (ip), vehicle: saline, higher = larger tumour) 111 % of control; (endpoint: mean tumor weight, dose: 175.0 mg/kg/injection, schedule: Q01DX011 (ip), vehicle: saline, higher = larger tumour) 85 % of control; (endpoint: mean tumor weight, dose: 263.0 mg/kg/injection, schedule: Q01DX011 (ip), vehicle: saline, higher = larger tumour) 103 % of control.

For the molecule `CCCCN(C)N=Nc1ccc(CCC(=O)OCC)cc1`, the T/C is 107 % of control (endpoint: median tumor weight (est.), dose: 72.0 mg/kg/injection, schedule: Q01DX009 (ip), vehicle: saline with Tween-80, higher = larger tumour); 95 % of control (endpoint: median tumor weight (est.), dose: 145.0 mg/kg/injection, schedule: Q01DX009 (ip), vehicle: saline with Tween-80, higher = larger tumour); 61 % of control (endpoint: median tumor weight (est.), dose: 290.0 mg/kg/injection, schedule: Q01DX009 (ip), vehicle: saline with Tween-80, higher = larger tumour).

As to `C=C(C)C(=O)OCCN(C)C` (tested in a mixture with another compound), the T/C runs as follows: (endpoint: median survival time, dose: 50.0 mg/kg/injection, schedule: Q01DX009 (ip), vehicle: other, higher = longer survival) 102 % of control; (endpoint: median survival time, dose: 100.0 mg/kg/injection, schedule: Q01DX009 (ip), vehicle: other, higher = longer survival) 103 % of control; (endpoint: median survival time, dose: 200.0 mg/kg/injection, schedule: Q01DX009 (ip), vehicle: other, higher = longer survival) 108 % of control; (endpoint: median survival time, dose: 400.0 mg/kg/injection, schedule: Q01DX009 (ip), vehicle: other, higher = longer survival) 102 % of control.

Turning to `CC1OC(Oc2c(-c3cc(O)c(O)c(O)c3)oc3cc(O)cc(O)c3c2=O)C(O)C(O)C1O` (stereo not given), the T/C is, setting by setting: under setting [1], 59 % of control; (endpoint: mean tumor weight, dose: 200.0 mg/kg/injection, schedule: Q01DX011 (ip), vehicle: carboxymethylcellulose (CMC), higher = larger tumour) 49 % of control; (endpoint: mean tumor weight, dose: 400.0 mg/kg/injection, schedule: Q01DX011 (ip), vehicle: carboxymethylcellulose (CMC), higher = larger tumour) 50 % of control.

Take `CN1CCCC1`: the T/C runs as follows: (endpoint: mean tumor weight, dose: 44.0 mg/kg/injection, schedule: Q01DX011 (ip), vehicle: carboxymethylcellulose (CMC), higher = larger tumour) 52 % of control; (endpoint: mean tumor weight, dose: 66.0 mg/kg/injection, schedule: Q01DX011 (ip), vehicle: carboxymethylcellulose (CMC), higher = larger tumour) 58 % of control; under setting [1], 69 % of control; (endpoint: mean tumor weight, dose: 150.0 mg/kg/injection, schedule: Q01DX011 (ip), vehicle: carboxymethylcellulose (CMC), higher = larger tumour) 109 % of control.

Turning to `O=CNCCO`, the T/C by setting is: (endpoint: mean tumor weight, dose: 133.0 mg/kg/injection, schedule: Q01DX011 (ip), vehicle: saline, higher = larger tumour) 69 % of control; (endpoint: mean tumor weight, dose: 200.0 mg/kg/injection, schedule: Q01DX011 (ip), vehicle: saline, higher = larger tumour) 79 % of control; (endpoint: mean tumor weight, dose: 300.0 mg/kg/injection, schedule: Q01DX011 (ip), vehicle: saline, higher = larger tumour) 48 % of control; (endpoint: mean tumor weight, dose: 450.0 mg/kg/injection, schedule: Q01DX011 (ip), vehicle: saline, higher = larger tumour) 54 % of control; (endpoint: mean tumor weight, dose: 750.0 mg/kg/injection, schedule: Q01DX011 (ip), vehicle: saline, higher = larger tumour) 81 % of control.

Regarding `CC[n+]1ccc(Nc2ccc(/C=C/c3ccc4cc(Nc5cc[n+](CC)cc5)ccc4[n+]3CC)cc2)cc1`, the T/C was 95 % of control (endpoint: median survival time, dose: 2.5 mg/kg/injection, schedule: Q01DX009 (ip), vehicle: saline, higher = longer survival); 100 % of control under setting [2]; 91 % of control under setting [3].

For the molecule `C[N+](C)(C)CCOC(=O)/C=C/c1cnc[nH]1`, the T/C is 102 % of control under setting [2]; 94 % of control under setting [3]; 95 % of control (endpoint: median survival time, dose: 20.0 mg/kg/injection, schedule: Q01DX009 (ip), vehicle: saline, higher = longer survival).

In the case of `CCCCn1cnc2c(=S)nc(N)[nH]c21`, the T/C was 73 % of control (endpoint: mean tumor weight, dose: 1.0 mg/kg/injection, schedule: Q01DX011 (ip), vehicle: other, higher = larger tumour); 59 % of control (endpoint: mean tumor weight, dose: 2.0 mg/kg/injection, schedule: Q01DX011 (ip), vehicle: other, higher = larger tumour); 39 % of control (endpoint: mean tumor weight, dose: 4.0 mg/kg/injection, schedule: Q01DX011 (ip), vehicle: other, higher = larger tumour); 58 % of control and 63 % of control (endpoint: mean tumor weight, dose: 8.0 mg/kg/injection, schedule: Q01DX011 (ip), vehicle: other, higher = larger tumour); 61 % of control (endpoint: mean tumor weight, dose: 16.0 mg/kg/injection, schedule: Q01DX011 (ip), vehicle: other, higher = larger tumour); 34 % of control (endpoint: mean tumor weight, dose: 32.0 mg/kg/injection, schedule: Q01DX011 (ip), vehicle: other, higher = larger tumour).

With `O=P(c1ccccc1)(N1CC1)N1CC1`, the T/C was 65 % of control (endpoint: mean tumor weight, dose: 11.0 mg/kg/injection, schedule: Q01DX011 (ip), vehicle: saline, higher = larger tumour); 93 % of control (endpoint: mean tumor weight, dose: 17.0 mg/kg/injection, schedule: Q01DX011 (ip), vehicle: saline, higher = larger tumour); 69 % of control (endpoint: mean tumor weight, dose: 25.0 mg/kg/injection, schedule: Q01DX011 (ip), vehicle: saline, higher = larger tumour); 38 % of control (endpoint: mean tumor weight, dose: 38.0 mg/kg/injection, schedule: Q01DX011 (ip), vehicle: saline, higher = larger tumour); 52 % of control (endpoint: mean tumor weight, dose: 76.0 mg/kg/injection, schedule: Q01DX011 (ip), vehicle: saline, higher = larger tumour).

`CC[C@H](CC[C@@H](C)[C@H]1CC[C@H]2[C@@H]3CC=C4C[C@@H](O)CC[C@]4(C)[C@H]3CC[C@]12C)C(C)C`: the T/C (endpoint: mean tumor weight, dose: 15.0 mg/kg/injection, schedule: Q01DX011 (ip), vehicle: water, higher = larger tumour) is 72 % of control; the T/C (endpoint: mean tumor weight, dose: 25.0 mg/kg/injection, schedule: Q01DX011 (ip), vehicle: water, higher = larger tumour) is 74 % of control; the T/C (endpoint: mean tumor weight, dose: 40.0 mg/kg/injection, schedule: Q01DX011 (ip), vehicle: water, higher = larger tumour) was 47 % of control; the T/C (endpoint: mean tumor weight, dose: 100.0 mg/kg/injection, schedule: Q01DX011 (ip), vehicle: water, higher = larger tumour) is 47 % of control; the T/C (endpoint: mean tumor weight, dose: 150.0 mg/kg/injection, schedule: Q01DX011 (ip), vehicle: water, higher = larger tumour) was 32 % of control; the T/C (endpoint: mean tumor weight, dose: 225.0 mg/kg/injection, schedule: Q01DX011 (ip), vehicle: water, higher = larger tumour) was 11 % of control.

With `O=C(O)CC(NC(=O)CP(=O)(O)O)C(=O)O.[NH-]C1CCCCC1[NH-].[Pt+2]` (stereo not given), the T/C was 90 % of control (endpoint: median survival time, dose: 2.0 mg/kg/injection, schedule: Q01DX009 (ip), vehicle: other, higher = longer survival); 92 % of control (endpoint: median survival time, dose: 4.0 mg/kg/injection, schedule: Q01DX009 (ip), vehicle: other, higher = longer survival); 95 % of control (endpoint: median survival time, dose: 6.0 mg/kg/injection, schedule: Q01DX009 (ip), vehicle: other, higher = longer survival); 102 % of control (endpoint: median survival time, dose: 6.0 mg/kg/injection, schedule: Q04DX003 (ip), vehicle: other, higher = longer survival); 96 % of control (endpoint: median survival time, dose: 8.0 mg/kg/injection, schedule: Q01DX009 (ip), vehicle: other, higher = longer survival); 100 % of control (endpoint: median survival time, dose: 12.0 mg/kg/injection, schedule: Q04DX003 (ip), vehicle: other, higher = longer survival). Moreover, the T/C is 88 % of control (endpoint: median survival time, dose: 18.0 mg/kg/injection, schedule: Q04DX003 (ip), vehicle: other, higher = longer survival) and 102 % of control (endpoint: median survival time, dose: 24.0 mg/kg/injection, schedule: Q04DX003 (ip), vehicle: other, higher = longer survival).

As for `CC[C@H]1CN2CCc3cc(OC)c(OC)cc3[C@@H]2C[C@@H]1C[C@H]1NCCc2cc(OC)c(OC)cc21`, where the note is “endpoint: mean tumor weight, dose: 1.5 mg/kg/injection, schedule: Q01DX011 (ip), vehicle: saline, higher = larger tumour”, the T/C is 86 % of control.

For the molecule `O=NN(CCCl)C(=O)NC(CCC(=O)O)C(=O)O` (stereo not given), the T/C is, setting by setting: (endpoint: median survival time, dose: 81.0 mg/kg/injection, schedule: Q01DX001 (ip), vehicle: saline with Tween-80, higher = longer survival) 99 % of control; (endpoint: median survival time, dose: 122.0 mg/kg/injection, schedule: Q01DX001 (ip), vehicle: saline with Tween-80, higher = longer survival) 95 % of control; (endpoint: median survival time, dose: 183.0 mg/kg/injection, schedule: Q01DX001 (ip), vehicle: saline with Tween-80, higher = longer survival) 157 % of control; (endpoint: median survival time, dose: 184.0 mg/kg/injection, schedule: Q01DX001 (ip), vehicle: saline with Tween-80, higher = longer survival) 117 % of control; (endpoint: median survival time, dose: 275.0 mg/kg/injection, schedule: Q01DX001 (ip), vehicle: saline with Tween-80, higher = longer survival) 107 % of control.
